Patent publication US20260083126A1, “ANTIMICROBIAL COMPOSITIONS” (AHV International B.V., priority 2022, published 2026)
Entries after “also recorded” stand apart in the source; their conditions may differ.

Legend:
[1] = system: Staphylococcus aureus LUH14616; test: Resistance development on repeated exposure (19 passages); assay type: cell-based
Procedure: Experimental design. Potential resistance to AM-8 was assessed as described by Habets and Brockhurst (2012) (Therapeutic antimicrobial peptides may compromise natural immunity. Biol Lett 8:416-418). Briefly, log phase bacteria (S. aureus LUH 14616) were diluted in RPMI-mod to a concentration of 2×10^6 CFU/ml. Next, 50 μl of this bacterial suspension were mixed with 50 μl of a range of dilutions of AM-8 or—as comparator-rifampicin in v-bottom 96-wells plates. Thereafter, the plates were covered with a plastic seal and incubated for 24 hrs at 37° C. in a shaking incubator (200 rpm). The plates were then centrifuged for 5 min at 2,000 rpm and the growth inhibition was determined. To start the resistance development testing, 100 μl of a mid-log bacterial suspension containing 2×10^6 CFU/ml were mixed with 150 μl of RPMI-mod and 5 μl of this diluted bacterial suspension were applied to v-bottom wells containing a dilution range of AM-8 or antibiotics (various concentrations below and above MIC) in RPMI-mod (RPMI 1640 modified with 20 mM Hepes and L-glutamine and without sodium bicarbonate (Sigma-Aldrich); further referred to as RPMI-mod). After 24 hrs at 37° C. in a shaking incubator (200 rpm) the growth inhibition was determined. 100 μl of the bacterial suspension from the 0.5×MIC wells were mixed with 150 μl of RPMI-mod and 5 μl of the diluted bacterial suspension were used to inoculate a new 96-wells plate containing a dilution series of AM-8 or rifampicin, and these mixtures were then incubated as described above. If resistance developed, the concentration range of AM-8 and/or antibiotic was adjusted accordingly. This was repeated 19 times. Results are expressed as the fold-increase in MIC compared to the MIC at the start of the experiment.

[2] = system: Staphylococcus aureus LUH14616 mature biofilms; test: Biofilm eradication assay, 7-day mature biofilms; assay type: cell-based; conditions: 7-day mature biofilm
Procedure: Biofilm eradication assay. The assay to reduce bacterial counts in mature biofilms was assessed as described earlier (Scheper H J, Wubbolts J M, Verhagen J A M, de Visser A W, van der Wal R J P, Visser L G, de Boer M J J G, and Nibbering P H. SAAP-148 eradicates MRSA persisters within mature biofilm models simulating prosthetic joint infection. Front. Microbiol. 12:625952. Doi: 10.3389/fmicb.2021.625952. eCollection 2021) with a single modification, i.e., the biofilms were exposed daily to AM-8 for up to 4 consecutive days. Briefly, approximately 1×10^7 CFU logarithmic phase bacteria in BHI were cultured in a 96-well flat-bottom polystyrene microplate sealed with breathable seal for 7 days. Next, mature biofilms were washed twice with PBS, then exposed for 24 hrs to AM-8 or as control the diluent of this compound. Hereafter the biofilms were washed and either re-exposed to AM-8/its diluent for another day or—in case of termination of the daily exposures-sonicated for microbiological quantification of the number of viable bacteria. Results are expressed as the number of surviving bacteria at the various days of exposure. Experiment was performed in triplicate.

[3] = solubility observed when preparing stock solutions; assay type: physicochemical; conditions: in water / medium; stock of 2 mM feasible with Tween80 and DMSO
Procedure: Hereafter, the stock solutions of the compounds were used in three repetitions in a minimal inhibitory concentration (MIC) assay at a 2-fold dilution range with various bacteria from the gram-positive and gram-negative group and a yeast, Candida albicans. The concentrations that show only less than 10% growth after 24 h were considered the MIC90-values, whereas the concentrations that show 50% growth after 24 h when compared to the bacterial growth control were considered the MIC50-values. Escherichia coli and Staphylococcus aureus were used as representatives for a gram-negative bacteria and gram-positive bacteria, respectively. Furthermore, the yeast C. albicans was also tested.
Conclusion and discussion. […] With the addition of solvents like Tween80 and DMSO a stock solution in medium of 2 mM was feasible. This allowed a maximum of testing concentration of 1 mM. […] Therefore, with the application of solvents a maximum testing concentration of 0.575 mM was possible. If the real growth-inhibiting concentration (MIC90) lies above these maximum assay concentrations, then it would not be detected in this assay.

[4] = system: AMR Staphylococcus aureus LUH14616 persisters; test: Anti-persister experiment, antibiotics-exposed mature biofilm; assay type: cell-based; conditions: after 3 days rifampicin and ciprofloxacin, 24 hrs exposure, FIG. 25
Procedure: Experimental design. The capacity of AM-2 (Bis(4-chlorophenyl) disulfide) and AM-8 to reduce bacterial counts in mature biofilms was assessed as described earlier (Scheper et al (2021) Scheper H, Wubbolts J M, Verhagen J A M, de Visser A W, van der Wal RJJP, Visser L G, de Boer M J G, and Nibbering P H. SAAP-148 eradicates MRSA persisters within mature biofilm models simulating prosthetic joint infection. Front. Microbiol. 12:625952. Doi: 10.3389/fmicb.2021.625952. eCollection 2021) with one modification, i.e., the biofilms were exposed daily to the compounds for up to 4 consecutive days. Briefly, antimicrobial resistant (AMR) Staphylococcus aureus LUH14616 were cultured to mid-log phase in tryptic soy broth (TSB; Oxoid Ltd, Basingstoke, UK) at 37° C. and 200 rpm, centrifuged for 10 min at 3,000 rpm and then resuspended in brain heart infusion broth (BHI; Oxoid Ltd, Basingstoke, UK). Next, approximately 1×10^7 CFU bacteria in BHI were cultured in a 96-well flat-bottom polystyrene microplate sealed with breathable seal for 7 days. […] To take possible slow-growing bacteria into account we analyzed the bacterial plates again after a week. Results are expressed as the number of surviving bacteria (CFU/ml).

CC(C)SS(=O)(=O)C(C)C [Di-isopropyl thiosulfonate]
resistance development ([1]; 19 passages, listed as AM-8): no resistance development; also recorded: little/no resistance
fold-increase in MIC compared to the MIC at the start ([1]; within 19 passages, two batches, seen occasionally): ≤ 2 fold
bacterial counts in mature biofilms, multiple daily exposures ([2]; daily exposure up to 4 days, FIG. 24, listed as AM-8): dose-dependently significantly reduced the bacterial counts in mature biofilms; also recorded: able to eliminate all bacteria within biofilms
biofilm reducing effect of a single dose ([2]; dose range study, results not shown): increased in time without fully eradicating the bacteria within the biofilm

Clc1ccc(SSc2ccc(Cl)cc2)cc1 [Bis (4-chlorophenyl) disulfide, Bis(4-chlorophenyl) disulfide]
solubility (observed) [3]: low solubility
effect on persisters within antibiotics-exposed mature biofilm [4]: at the highest dose was effectively against persisters
